Laboratory results published in patent publication US20250197513A1, “OSMR-SPECIFIC MONOCLONAL ANTIBODIES AND METHODS OF THEIR USE” (THE BOARD OF REGENTS OF THE UNIVERSITY OF TEXAS SYSTEM, priority 2021, published 2025).

What was measured:
[1] = system: SL3 cells; experiment: Cell viability, cisplatin 48 h; type: cell-based, human; details: cisplatin alone
Method: (§1) CCK8 cell viability assay: One thousand cells were seeded each well in 96-well plates. Following treatment for 48 h, the cells were washed with PBS and incubated for 4 h with CCK8 reagent at 37° C. in 5% CO2 incubator according to manufacturer's guidelines. The absorbance was measured at 460 nm.

[2] = system: A2780 cells; experiment: Cell viability, cisplatin 48 h; type: cell-based, human; details: cisplatin alone
Method: as §1

[3] = system: A2780 ovarian cancer; experiment: In vivo, intraperitoneal A2780-sensitive luciferase tumors; parameters: species or system athymic nude mice; details: single agent, mice stimulated with OSM; cisplatin 5 mg/kg biweekly
[4] = system: OVCAR8-Cis cells; experiment: Cell viability, cisplatin 48 h; type: cell-based, human; details: cisplatin alone
Method: as §1

[5] = system: A2780-Cis cells; experiment: Cell viability, cisplatin 48 h; type: cell-based, human; details: cisplatin alone
Method: as §1

[6] = system: OVCAR8 cells; experiment: Cell viability, cisplatin 48 h; type: cell-based, human; details: cisplatin alone
Method: as §1

[7] = system: A2780-CP tumors; experiment: In vivo, intraperitoneal A2780-cisplatin resistant luciferase tumors; parameters: species or system athymic nude mice; details: cisplatin alone, 5 mg/kg biweekly
[8] = system: SL-3-Cis cells; experiment: Cell viability, cisplatin 48 h; type: cell-based, human; details: cisplatin alone
Method: as §1

N.N.[Cl][Pt][Cl] [cisplatin]
IC50 [1]: 1210 nM
IC50 [2]: 2040 nM
growth of A2780 ovarian cancer (bioluminescence) [3]: reduced the growth
IC50 [4]: 13.6 µM
IC50 [5]: 10.4 µM
IC50 [6]: 1740 nM
growth and metastasis of A2780-CP tumors [7]: did not inhibit the growth and metastasis
IC50 [8]: 7.37 µM
